What follows are compounds tested on Escherichia coli (ATCC25922) or Staphylococcus aureus (ATCC25923) (assay: Antibacterial MIC, microdilution method in Mueller-Hinton medium). Details: Escherichia coli, 18 h, MIC in E. coli or S. aureus; two-fold serial dilutions 64 to 0.5 μg/ml in duplicate; 18 hours of incubation at 35° C.; read-out: Potency (MIC).
Type: cell-based
How it was run: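 Two-fold serial dilutions from 64 to 0.5 μg/ml, in duplicate, by broth microdilution in Mueller-Hinton medium (NCCLS M7-A5). MIC taken as the lowest concentration preventing visible growth after 18 h at 35° C.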

MIC [mg/L]	Compound
< 64	Cl.O=C(Oc1ccccc1)c1ccc(Nc2nc(N3CCCCC3)nc(N3CCCC3)n2)cc1O [4-[4-((3S,5R)-3,5-Diamino-piperidin-1-yl)-6-((3R,4S)-3,4-dihydroxy-pyrrolidin-1-yl)-[1,3,5]triazin-2-ylamino]-2-hydrooxy-benzoic acidphenyl ester]
> 64	Cl.N[C@@H]1C[C@H](N)CN(c2nc(Nc3ccccc3S(N)(=O)=O)nc(N3C[C@H](N)C[C@H](N)C3)n2)C1 [N-(2-sulfamoyl-phenyl)-4,6-Bis-((3R,5S)-3,5-diamino-piperidin-1-yl)-[1,3,5]triazine-2-amine]
< 16	Cc1ccc(S(=O)(=O)N(Cc2ccccc2)c2ccc(Nc3nc(N4CCCCC4)nc(N4CCN(c5ccncc5)CC4)n3)cc2O)cc1.Cl [N-Benzyl-N-{4-[4-((3R,5SD)-3,5-diamino-piperidin-1-yl)-6-(4-pyridin-4-yl-piperazin-1-yl)-[1,3,5]triazin-2-ylamino]-2-hydroxy-phenyl}-4-methyl-benzenesulfonamide]
< 64	N[C@@H]1C[C@H](N)CN(c2nc(Nc3cccc(NC(=O)c4cc5cccc(O)c5cc4O)c3)nc(N3C[C@H](N)C[C@H](N)C3)n2)C1 [N-{3-[(3,5-dihydroxy-naphthalene-2-carbonyl)-amino]-phenyl}-4,6-Bis-((3R,5S)-3,5-diamino-piperidin-1-yl)-[1,3,5]triazine-2-amine]
< 64	Cc1ccc(C(=O)Nc2ccc(Nc3nc(N4CCCCC4)nc(N4CCC(N5CCCC5)CC4)n3)cc2O)cc1 [N-{4-[4-((3R,5S)-3,5-Diamino-piperidin-1-yl)-6-(4-pyrrolidin-1-yl-piperidin-1-yl)-[1,3,5]triazin-2-ylamino]-2-hydroxy-phhenyl}-4-methyl-benzamide]
< 64	Cc1ccc(C(=O)Nc2ccc(Nc3nc(N(CCN)CCN)nc(N4CCCCC4)n3)cc2O)cc1.Cl [N-{4-[4-[Bis-(2-amino-ethyl)-amino]-6-((3R,5S)-3,5-diamino-piperidin-1-yl-[1,3,5]triazin-2-ylamino]-2-hydroxy-phenyl}-4-methyl-benzamide]
< 64	Cl.N[C@@H]1C[C@H](N)CN(c2nc(Nc3ccccc3-n3cccc3)nc(N3C[C@H](N)C[C@H](N)C3)n2)C1 [N-(2-pyrrol-1-yl-phenyl)-4,6-Bis-((3R,5S)-3,5-diamino-piperidin-1-yl)-[1,3,5]triazine-2-amine]

Same assay, conditions: Escherichia coli, 18 h, read-out: Potency (MIC)

Compound	MIC [mg/L]
COc1ccc(O)c(C(=O)Nc2ccc(Nc3nc(N4C[C@H](N)C[C@H](N)C4)nc(N4C[C@H](N)C[C@H](N)C4)n3)cc2)c1 [N-[4-(2-hydroxy-5-methoxy-benzoylamino)-phenyl]-4,6-Bis-((3R,5S)-3,5-diamino-piperidin-1-yl)-[1,3,5]triazine-2-amine]	< 64
N[C@@H]1C[C@H](N)CN(c2nc(Nc3ccc(C(=O)CC(=O)Nc4cccc(Cl)c4)cc3)nc(N3C[C@H](N)C[C@H](N)C3)n2)C1 [N-{4-[2-(3-chloro-phenylcarbamoyl)-acetyl]-phenyl}-4,6-Bis-((3R,5S)-3,5-diamino-piperidin-1-yl)-[1,3,5]triazine-2-amine]	< 16
N[C@@H]1C[C@H](N)CN(c2nc(NCc3ccc(Oc4ccccc4)cc3)nc(N3C[C@H](N)C[C@H](N)C3)n2)C1 [N-(4-phenoxy-benzyl)-4,6-Bis-((3R,5S)-3,5-diamino-piperidin-1-yl)-[1,3,5]triazine-2-amine]	> 64
CC(=O)c1ccc(Nc2nc(N3C[C@H](N)C[C@H](N)C3)nc(N3CCC[C@@H](O)C3)n2)cc1 [1-{4-[4-((3R,5S)-3,5-Diamino-piperidin-1-yl)-6-((R)-3-hydroxy-piperidin-1-yl)-[1,3,5]triazin-2-ylamino]-phenyl}-ethanone]	> 64
N[C@@H]1C[C@H](N)CN(c2nc(Nc3ccc(NC(=O)c4ccc5ccccc5c4O)cc3)nc(N3C[C@@H](O)[C@@H](O)C3)n2)C1 [1-Hydroxy-naphthalene-2-carboxylic acid {4-[4-((3S,5R)-3,5-diamino-piperidin-1-yl)-6-((3R,4S)-3,4-dihydroxy-pyrrolidin-1-yl)-[1,3,5]triazin-2-ylamino]-phenyl}-amide]	< 64
Cc1ccc(C(=O)Nc2ccc(Nc3nc(N4C[C@H](N)C[C@H](N)C4)nc(N4C[C@H](N)C[C@H](N)C4)n3)cc2)c(O)c1 [N-[4-(2-hydroxy-4-methyl-benzoylamino)-phenyl]-4,6-Bis-((3R,5S)-3,5-diamino-piperidin-1-yl)-[1,3,5]triazine-2-amine]	< 16
N[C@@H]1C[C@H](N)CN(c2nc(Nc3ccc(NS(=O)(=O)c4ccc5c(c4)CN(C(=O)C(F)(F)F)CC5)c(O)c3)nc(N3C[C@H](N)C[C@H](N)C3)n2)C1 [N-{3-hydroxy-4-[2-(2,2,2-trifluoro-acetyl)-1,2,3,4-tetrahydro-isoquinoline-7-sulfonylamino]-phenyl}-4,6-Bis-((3R,5S)-3,5-diamino-piperidin-1-yl)-[1,3,5]triazine-2-amine]	> 64
N[C@@H]1C[C@H](N)CN(c2nc(Nc3ccc(C(=O)CC(=O)Nc4ccc(F)cc4)cc3)nc(N3C[C@H](N)C[C@H](N)C3)n2)C1 [N-{4-[2-(4-fluoro-phenylcarbamoyl)-acetyl]-phenyl}-4,6-Bis-((3R,5S)-3,5-diamino-piperidin-1-yl)-[1,3,5]triazine-2-amine]	< 16
Cc1c(Cl)cccc1CNc1nc(N2C[C@H](N)C[C@H](N)C2)nc(N2C[C@H](N)C[C@H](N)C2)n1 [N-(3-chloro-2-methyl-benzyl)-4,6-Bis-((3R,5S)-3,5-diamino-piperidin-1-yl)-[1,3,5]triazine-2-amine]	> 64
CCCCC(=O)Nc1ccc(S(=O)(=O)Nc2ccc(Nc3nc(N4C[C@H](N)C[C@H](N)C4)nc(N4C[C@H](N)C[C@H](N)C4)n3)cc2O)cc1 [N-[3-hydroxy-4-(4-pentanoylamino-benzenesulfonylamino)-phenyl]-4,6-Bis-((3R,5S)-3,5-diamino-piperidin-1-yl)-[1,3,5]triazine-2-amine]	< 64
NC[C@@H]1C[C@H](CN)CN(c2nc(Nc3ccc(C(=O)Oc4ccccc4)c(O)c3)nc(N3C[C@H](N)C[C@H](N)C3)n2)C1 [4-[4-((3R,5S)-3,5-Bis-(aminomethyl)-piperidin-1-yl)-6-((3R,5S)-3,5-diamino-piperidin-1-yl)-[1,3,5]triazin-2-ylamino]-2-hydroxy-benzoic acid phenyl ester]	< 64
Cc1cc(=O)oc2cc(Nc3nc(NCCN)nc(N4C[C@H](N)C[C@H](N)C4)n3)ccc12 [7-[4-(2-Amino-ethylamino)-6-((3R,5S)-3,5-diamino-piperidin-1-yl)-[1,3,5]triazin-2-ylamino]-4-methyl-chromen-2-one]	> 64
N[C@@H]1C[C@H](N)CN(c2nc(Nc3cccc(NC(=O)c4ccc(O)cc4O)c3)nc(N3C[C@H](N)C[C@H](N)C3)n2)C1 [N-[3-(2,4-dihydroxy-benzoylamino)-phenyl]-4,6-Bis-((3R,5S)-3,5-diamino-piperidin-1-yl)-[1,3,5]triazine-2-amine]	< 16

Same assay, conditions: MIC in E. coli or S. aureus; two-fold serial dilutions 64 to 0.5 μg/ml in duplicate; 18 hours of incubation at 35° C.

Compound	Potency (MIC)
NC[C@H]1[C@@H](O)CCN1c1nc(Nc2ccc(C(=O)Oc3ccccc3)c(O)c2)nc(N2C[C@H](N)C[C@H](N)C2)n1 [4-[4-((2S,3S)-2-Aminomethyl-3-hydroxy-pyrrolidin-1-yl)-6-((3R,5S)-3,5-diamino-piperidin-1-yl)-[1,3,5]triazin-2-ylamino]-2-hydroxy-benzoic acidphenylester]	− (− means MIC>64 μg/ml in E. coli or S. aureus)

— US7223759B2, “Antibacterial 3,5-diaminopiperidine-substituted aromatic and heteroaromatic compounds” (Anadys Pharmaceuticals, Inc., priority 2003, dated 2007)
